Test results as given in patent US11306064B2, “Benzothia(di)azepine compounds and their use as bile acid modulators” (Albireo AB, priority 2018, dated 2022).

These molecules were tested against T1, Human ASBT (Homo sapiens, UniProt Q12908) (assay: ASBT (h/m) assay: 3H-taurocholic acid uptake in human ASBT-overexpressing cells). Conditions: 0.25 μM 3H-taurocholic acid and 5 μM cold taurocholic acid, 20 minutes, read-out: hASBT IC50.
T1 construct: expressed in transfected cells; kept under Puromycin selection
T1 sequence (Q12908 1-348): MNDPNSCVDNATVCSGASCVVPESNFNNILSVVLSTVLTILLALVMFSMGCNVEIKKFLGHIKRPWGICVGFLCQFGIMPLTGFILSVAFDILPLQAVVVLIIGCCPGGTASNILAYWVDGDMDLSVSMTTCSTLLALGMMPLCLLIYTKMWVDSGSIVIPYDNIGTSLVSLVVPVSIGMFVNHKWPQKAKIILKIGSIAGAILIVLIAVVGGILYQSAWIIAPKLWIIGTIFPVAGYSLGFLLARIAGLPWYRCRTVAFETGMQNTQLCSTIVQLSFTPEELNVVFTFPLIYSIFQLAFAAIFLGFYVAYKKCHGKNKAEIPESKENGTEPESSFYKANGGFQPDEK
Assay type: cell-based
Outline: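 ASBT-overexpressing cells, seeded 48 h earlier, took up 0.25 µM 3H-taurocholic acid plus 5 µM cold taurocholate for 20 min at 37 °C with inhibitor (10-point 3-fold series, top 10 µM, 0.2% DMSO). Ice stop, washes with cold 1 mM taurocholate in HEPES-HBSS pH 7.4, scintillation counting.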
Work on CCCCC1(CC)CN(c2ccccc2)c2cc(Cl)c(O/C=C(\F)C(=O)O)cc2S(=O)(=O)C1 (single isomer, unassigned) [Example 48, (Z)-3-((3-butyl-7-chloro-3-ethyl-1,1-dioxido-5-phenyl-2,3,4,5-tetrahydro-1,5-benzothiazepin-8-yl)oxy)-2-fluoroacrylic acid] yielded an IC50 of 42 nM. In the case of CCCCC1(CC)CN(c2ccccc2)c2cc(SC)c(O/C=C/C(=O)O)cc2S(=O)(=O)C1 (single isomer, unassigned) [Example 18, (E)-3-((3-butyl-3-ethyl-7-(methylthio)-1,1-dioxido-5-phenyl-2,3,4,5-tetrahydro-1,5-benzothiazepin-8-yl)oxy)acrylic acid], the IC50 is reported as 19 nM. Work on CCCCC1(CCCC)CN(c2ccccc2)c2cc(SC)c(O/C=C(\F)C(=O)O)cc2S(=O)(=O)C1 [Example 11, (Z)-3-((3,3-dibutyl-7-(methylthio)-1,1-dioxido-5-phenyl-2,3,4,5-tetrahydro-1,5-benzothiazepin-8-yl)oxy)-2-fluoroacrylic acid] yielded an IC50 of 48 nM. CCC1(CC)CN(c2ccccc2)c2cc(SC)c(O/C=C(\F)C(=O)O)cc2S(=O)(=O)C1 [Example 44, (Z)-3-((3,3-diethyl-7-(methylthio)-1,1-dioxido-5-phenyl-2,3,4,5-tetrahydro-1,5-benzothiazepin-8-yl)oxy)-2-fluoroacrylic Acid] gave an IC50 of 257 nM. CCCCC1(CC)CN(c2ccccc2)c2cc(Br)c(O/C=C/C(=O)O)cc2S(=O)(=O)C1 (single isomer, unassigned) [Example 6, (E)-3-((7-bromo-3-butyl-3-ethyl-1,1-dioxido-5-phenyl-2,3,4,5-tetrahydro-1,5-benzothiazepin-8-yl)oxy)acrylic acid] was tested, and the IC50 was 57 nM. CCCCC1(CC)CN(c2ccccc2)c2cc(SC)c(O/C=C(\F)C(=O)O)cc2S(=O)(=O)C1 (single isomer, unassigned) [Example 43, (Z)-3-((3-butyl-3-ethyl-7-(methylthio)-1,1-dioxido-5-phenyl-2,3,4,5-tetrahydro-1,5-benzothiazepin-8-yl)oxy)-2-fluoroacrylic acid] was tested, and the IC50 was 21 nM.
